What all share (assay): relative viability (nuclei count vs DMSO), 5 days (fraction); higher = more cells survive
Compound in assay [1]: C1=CC2=NC=CN=C2C=C1/C=C/3\C(=O)NC(=O)S3 + Cc1nc(NC(=O)N2CCC[C@H]2C(N)=O)sc1-c1ccnc(C(C)(C)C(F)(F)F)c1 [Alpelisib] (partner 2 µM)
An outline of the steps:
(§1)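 A single step with final 0.05% Triton X-100, 1% formaldehyde and 1 ug/ml Hoechst fixed the cells and stained nuclei 5 days after treatment. Lung cancer cell lines in 1536-well plates had been treated by pin tool the day after seeding with one drug alone or a fixed anchor-drug dose plus five library-drug doses (not always all listed) in √10 steps, and nuclei were counted on 4× images. Relative viability is the ratio of nuclei in treated wells to nuclei in vehicle wells, taken as the median of duplicate plates.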

Compound in assay [2]: CCN1CCN(c2ccc(Nc3cc(N(C)C(=O)Nc4c(Cl)c(OC)cc(OC)c4Cl)ncn3)cc2)CC1 [BGJ398] + CS(=O)(=O)CCNCc1ccc(-c2ccc3ncnc(Nc4ccc(OCc5cccc(F)c5)c(Cl)c4)c3c2)o1 [Lapatinib] (partner 2 µM)
An outline of the steps:
as §1

Compound in assay [3]: C1=CC2=NC=CN=C2C=C1/C=C/3\C(=O)NC(=O)S3 + Nc1ncn([C@H]2C[C@H](O)[C@@H](CO)O2)c(=O)n1 [Decitabine] (partner 2 µM)
Summed up:
as §1

Compound in assay [4]: C1=CC2=NC=CN=C2C=C1/C=C/3\C(=O)NC(=O)S3 + O=C(CCCCCCC(=O)Nc1ccccc1)NO [Vorinostat] (partner 1 µM)
Summed up: as §1

As to UMC-11, the relative viability in assay [1] (first compound 0.02 µM) was found to be 0.987; in assay [1] (first compound 0.06325 µM), 1.19; in assay [1] (first compound 0.2 µM) it was 0.989; in assay [1] (first compound 0.6325 µM), 0.948; in assay [1] (first compound 2 µM), 0.932; in assay [2] (first compound 0.01 µM), 1.14. The relative viability in assay [2] (first compound 0.03162 µM) came to 0.987; in assay [2] (first compound 0.1 µM) it was 0.991; in assay [2] (first compound 0.3162 µM) it was 0.924; in assay [2] (first compound 1 µM), 0.736; in assay [3] (first compound 0.02 µM), 0.695; in assay [3] (first compound 0.06325 µM) it was 0.665. For the same cell line, the relative viability worked out at 0.681 in assay [3] (first compound 0.2 µM); 0.531 in assay [3] (first compound 0.6325 µM); 0.69 in assay [3] (first compound 2 µM); 0.373 in assay [4] (first compound 0.02 µM); 0.345 in assay [4] (first compound 0.06325 µM); 0.485 in assay [4] (first compound 0.2 µM). Besides, the relative viability stood at 0.316 in assay [4] (first compound 0.6325 µM) and 0.394 in assay [4] (first compound 2 µM).

(Values after the supplement of paper PMC10307832.)
